Reference: paper PMC5218480 (PLoS ONE, 2017)

Tested on: MV-4-11 cells
Assay: Gene expression microarray analysis (Affymetrix PrimeView) and GSEA
Assay type: cell-based, human
Design: RFU PODN (11730768_x_at) / Fold change /veh PODN (11730768_x_at) / RFU LINC00158 (11744669_a_at) / Fold change /veh LINC00158 (11744669_a_at) / RFU DUSP10 (11751237_a_at) / Fold change /veh DUSP10 (11751237_a_at) / RFU ID3 (11757404_x_at) / Fold change /veh ID3 (11757404_x_at) / RFU PLEKHG5 (11737974_s_at) / Fold change /veh PLEKHG5 (11737974_s_at) / RFU LRRC4B (11730491_at) / Fold change /veh LRRC4B (11730491_at) / RFU GIMAP4 (11747438_a_at) / Fold change /veh GIMAP4 (11747438_a_at) / RFU KRT8 (11758183_x_at) / Fold change /veh KRT8 (11758183_x_at) / RFU CNN1 (11734310_a_at) / Fold change /veh CNN1 (11734310_a_at) / RFU VPS37D (11726825_at) / Fold change /veh VPS37D (11726825_at) / RFU C10orf10 (11716522_x_at) / Fold change /veh C10orf10 (11716522_x_at) / RFU KIR2DL2 /// KIR2DL4 /// KIR2DL5A /// KIR2DL5B /// KIR2DS1 /// KIR2DS2 /// KIR2DS3 /// KIR2DS4 /// KIR3DL3 /// KIR3DL3 /// KIR3DS1 (11738374_at) / Fold change /veh KIR2DL2 /// KIR2DL4 /// KIR2DL5A /// KIR2DL5B /// KIR2DS1 /// KIR2DS2 /// KIR2DS3 /// KIR2DS4 /// KIR3DL3 /// KIR3DL3 /// KIR3DS1 (11738374_at) / RFU C1QL1 (11718748_at) / Fold change /veh C1QL1 (11718748_at) / RFU TMPRSS4 (11747572_a_at) / Fold change /veh TMPRSS4 (11747572_a_at) / RFU HAMP (11756126_x_at) / Fold change /veh HAMP (11756126_x_at) / RFU RNFT2 (11725882_a_at) / Fold change /veh RNFT2 (11725882_a_at) / RFU NR4A2 (11747474_a_at) / Fold change /veh NR4A2 (11747474_a_at) / RFU ABCC12 (11746883_a_at) / Fold change /veh ABCC12 (11746883_a_at) / RFU TMEM136 (11760407_x_at) / Fold change /veh TMEM136 (11760407_x_at) / RFU CLDN22 /// WWC2 (11732394_at) / Fold change /veh CLDN22 /// WWC2 (11732394_at) / RFU HLA-DPB1 (11760878_x_at) / Fold change /veh HLA-DPB1 (11760878_x_at) / RFU SPINT1 (11716480_a_at) / Fold change /veh SPINT1 (11716480_a_at) / RFU GAP43 (11754022_s_at) / Fold change /veh GAP43 (11754022_s_at) / RFU A4GNT (11735810_at) / Fold change /veh A4GNT (11735810_at) / RFU PRB3 (11715151_x_at) / Fold change /veh PRB3 (11715151_x_at) / RFU TUBB4B (11761932_at) / Fold change /veh TUBB4B (11761932_at) / RFU CAPN14 (11732068_a_at) / Fold change /veh CAPN14 (11732068_a_at) / RFU TMCC2 (11721928_a_at) / Fold change /veh TMCC2 (11721928_a_at) / RFU IRGQ (11745062_a_at) / Fold change /veh IRGQ (11745062_a_at) / RFU FAM174B (11720279_a_at) / Fold change /veh FAM174B (11720279_a_at) / RFU TMPRSS4 (11748680_a_at) / Fold change /veh TMPRSS4 (11748680_a_at) / RFU FAM212B (11763350_a_at) / Fold change /veh FAM212B (11763350_a_at) / RFU PLEKHG5 (11743358_a_at) / Fold change /veh PLEKHG5 (11743358_a_at) / RFU ZSCAN30 (11745921_a_at) / Fold change /veh ZSCAN30 (11745921_a_at) / RFU CMKLR1 (11741424_a_at) / Fold change /veh CMKLR1 (11741424_a_at) / RFU LOC101060620 /// MAPK8IP1 (11723275_at) / Fold change /veh LOC101060620 /// MAPK8IP1 (11723275_at) / RFU SPTSSB (11747773_x_at) / Fold change /veh SPTSSB (11747773_x_at) / RFU PRSS12 (11739890_at) / Fold change /veh PRSS12 (11739890_at) / RFU BIN1 (11741810_x_at) / Fold change /veh BIN1 (11741810_x_at) / RFU WNT11 (11732464_a_at) / Fold change /veh WNT11 (11732464_a_at) / RFU C10orf10 (11716521_a_at) / Fold change /veh C10orf10 (11716521_a_at) / RFU C5orf56 (11738089_at) / Fold change /veh C5orf56 (11738089_at) / RFU CYB561 (11721691_x_at) / Fold change /veh CYB561 (11721691_x_at) / RFU ANKRD19P (11752326_a_at) / Fold change /veh ANKRD19P (11752326_a_at) / RFU OR2T12 /// OR2T33 /// OR2T8 (11738714_s_at) / Fold change /veh OR2T12 /// OR2T33 /// OR2T8 (11738714_s_at) / RFU VCAN (11748164_a_at) / Fold change /veh VCAN (11748164_a_at) / RFU JSRP1 (11732532_at) / Fold change /veh JSRP1 (11732532_at) / RFU KRTAP10-11 (11738290_x_at) / Fold change /veh KRTAP10-11 (11738290_x_at) / RFU MYO3A (11730013_a_at) / Fold change /veh MYO3A (11730013_a_at) / RFU EBF3 (11725865_a_at) / Fold change /veh EBF3 (11725865_a_at) / RFU CAMK2N1 (11719241_x_at) / Fold change /veh CAMK2N1 (11719241_x_at) / RFU C5orf56 (11738088_a_at) / Fold change /veh C5orf56 (11738088_a_at) / RFU OLFML3 (11715873_a_at) / Fold change /veh OLFML3 (11715873_a_at) / RFU LOC100653217 /// NTM (11731650_a_at) / Fold change /veh LOC100653217 /// NTM (11731650_a_at) / RFU MAPK11 (11762145_a_at) / Fold change /veh MAPK11 (11762145_a_at) / RFU FIZ1 (11724087_x_at) / Fold change /veh FIZ1 (11724087_x_at) / RFU OASL (11726364_x_at) / Fold change /veh OASL (11726364_x_at) / RFU SOX15 (11748057_x_at) / Fold change /veh SOX15 (11748057_x_at) / RFU CD79A (11719716_a_at) / Fold change /veh CD79A (11719716_a_at) / RFU HIST1H1D (11736915_at) / Fold change /veh HIST1H1D (11736915_at) / RFU CASKIN2 (11723855_a_at) / Fold change /veh CASKIN2 (11723855_a_at) / RFU LOC730098 (11760151_x_at) / Fold change /veh LOC730098 (11760151_x_at) / RFU OR4N2 (11742367_at) / Fold change /veh OR4N2 (11742367_at) / RFU PRRT2 (11749266_a_at) / Fold change /veh PRRT2 (11749266_a_at) / RFU SNX32 (11753110_a_at) / Fold change /veh SNX32 (11753110_a_at) / RFU CDHR5 (11726645_a_at) / Fold change /veh CDHR5 (11726645_a_at) / RFU RCAN1 (11760418_a_at) / Fold change /veh RCAN1 (11760418_a_at) / RFU FAM167A (11723789_a_at) / Fold change /veh FAM167A (11723789_a_at) / RFU FAM26E (11764081_at) / Fold change /veh FAM26E (11764081_at) / RFU ISYNA1 (11749810_s_at) / Fold change /veh ISYNA1 (11749810_s_at) / RFU ACY1 (11761880_at) / Fold change /veh ACY1 (11761880_at) / RFU 11764098_at / Fold change /veh 11764098_at / RFU SAMD14 (11745864_x_at) / Fold change /veh SAMD14 (11745864_x_at) / RFU NPB (11741838_a_at) / Fold change /veh NPB (11741838_a_at) / RFU TMPRSS6 (11731388_a_at) / Fold change /veh TMPRSS6 (11731388_a_at) / RFU KRTAP10-2 (11738614_at) / Fold change /veh KRTAP10-2 (11738614_at) / RFU ARHGAP8 /// PRR5-ARHGAP8 (11727945_x_at) / Fold change /veh ARHGAP8 /// PRR5-ARHGAP8 (11727945_x_at) / RFU KRTAP5-7 /// NADSYN1 (11734609_at) / Fold change /veh KRTAP5-7 /// NADSYN1 (11734609_at) / RFU RASL12 (11751679_a_at) / Fold change /veh RASL12 (11751679_a_at) / RFU CDKN2B (11736163_a_at) / Fold change /veh CDKN2B (11736163_a_at) / RFU PRF1 (11729649_at) / Fold change /veh PRF1 (11729649_at) / RFU, ZNF638 /// ZNF638-IT1 / Fold change vs veh, ZNF638 /// ZNF638-IT1 / RFU, PANK3 / Fold change vs veh, PANK3 / RFU, SH3YL1 / Fold change vs veh, SH3YL1 / RFU, ZEB2 / Fold change vs veh, ZEB2 / RFU, NRIP1 / Fold change vs veh, NRIP1 / RFU, PTTG1IP / Fold change vs veh, PTTG1IP / RFU, CAPN2 / Fold change vs veh, CAPN2 / RFU, MED14 / Fold change vs veh, MED14 / RFU, SNORA58 / Fold change vs veh, SNORA58 / RFU, C1orf63 / Fold change vs veh, C1orf63 / RFU, LRRFIP1 / Fold change vs veh, LRRFIP1 / RFU, NDUFAF7 / Fold change vs veh, NDUFAF7 / RFU, SLC12A2 / Fold change vs veh, SLC12A2 / RFU, IBTK / Fold change vs veh, IBTK / RFU, ESF1 / Fold change vs veh, ESF1 / Fold change vs veh, TMEM50B / RFU, TAOK1 / Fold change vs veh, TAOK1 / RFU, ACBD3 / Fold change vs veh, ACBD3 / RFU, TMA16 / Fold change vs veh, TMA16 / RFU, RWDD3 / Fold change vs veh, RWDD3 / RFU, BCAT1 / Fold change vs veh, BCAT1 / RFU, EDEM3 / Fold change vs veh, EDEM3 / RFU, TMEM33 / Fold change vs veh, TMEM33 / RFU, WDR75 / Fold change vs veh, WDR75 / RFU, AHCTF1 / Fold change vs veh, AHCTF1 / RFU, TFRC / Fold change vs veh, TFRC / RFU, ZDHHC17 / Fold change vs veh, ZDHHC17 / RFU, NOM1 / Fold change vs veh, NOM1 / RFU, ARL8B / Fold change vs veh, ARL8B / RFU, ZBTB11 / Fold change vs veh, ZBTB11 / RFU, TAMM41 / Fold change vs veh, TAMM41 / RFU, KIAA1704 /// LOC100996395 / Fold change vs veh, KIAA1704 /// LOC100996395 / RFU, ING1 / Fold change vs veh, ING1 / RFU, TRMT61B / Fold change vs veh, TRMT61B / RFU, FUBP3 / Fold change vs veh, FUBP3 / RFU, TP53 / Fold change vs veh, TP53 / RFU, TNKS2 / Fold change vs veh, TNKS2 / RFU, ZFP14 / Fold change vs veh, ZFP14 / RFU, ACTR2 / Fold change vs veh, ACTR2 / RFU, PPP3R1 / Fold change vs veh, PPP3R1 / RFU, PIK3R1 / Fold change vs veh, PIK3R1 / RFU, HNRNPA1 / Fold change vs veh, HNRNPA1 / RFU, RNF170 / Fold change vs veh, RNF170 / RFU, ZNF28 / Fold change vs veh, ZNF28 / RFU, RNGTT / Fold change vs veh, RNGTT / RFU, OGT / Fold change vs veh, OGT / RFU, BRD1 / Fold change vs veh, BRD1 / RFU, MARS / Fold change vs veh, MARS / RFU, ZNF655 / Fold change vs veh, ZNF655 / RFU, FAHD1 / Fold change vs veh, FAHD1 / RFU, BDP1 / Fold change vs veh, BDP1 / RFU, LRRCC1 / Fold change vs veh, LRRCC1 / RFU, ARID1A / Fold change vs veh, ARID1A / RFU, ZNF146 / Fold change vs veh, ZNF146 / RFU, ZNF330 / Fold change vs veh, ZNF330 / RFU, GPN3 / Fold change vs veh, GPN3 / RFU, C9orf123 / Fold change vs veh, C9orf123 / RFU, N4BP2L2 / Fold change vs veh, N4BP2L2 / RFU, ARFIP1 / Fold change vs veh, ARFIP1 / RFU, FAM179B / Fold change vs veh, FAM179B / RFU, BCL10 / Fold change vs veh, BCL10 / RFU, UHRF1BP1L / Fold change vs veh, UHRF1BP1L / RFU, BET1 / Fold change vs veh, BET1 / RFU, CNOT2 / Fold change vs veh, CNOT2 / RFU, ZNF268 / Fold change vs veh, ZNF268 / Fold change vs veh, ZNF507 / RFU, DGCR2 / Fold change vs veh, DGCR2 / RFU, WDSUB1 / Fold change vs veh, WDSUB1 / Fold change vs veh, HSP90B1 /// MIR3652 / RFU, ADSS / Fold change vs veh, ADSS / RFU, GK / Fold change vs veh, GK / RFU, ZNF148 / Fold change vs veh, ZNF148 / RFU, TAF9 / Fold change vs veh, TAF9 / RFU, SLC1A5 / Fold change vs veh, SLC1A5 / RFU, SLMO2 / Fold change vs veh, SLMO2 / RFU, ABCC4 / Fold change vs veh, ABCC4 / RFU, LOC101060439 /// RAP1B / Fold change vs veh, LOC101060439 /// RAP1B / RFU, RFX7 / Fold change vs veh, RFX7 / RFU, GTPBP10 / Fold change vs veh, GTPBP10 / RFU, CNEP1R1 / Fold change vs veh, CNEP1R1 / RFU, BIVM-ERCC5 /// ERCC5 / Fold change vs veh, BIVM-ERCC5 /// ERCC5 / RFU, ILF3 / Fold change vs veh, ILF3 / RFU 11762660_at / Fold change /veh 11762660_at / RFU VCAN (11757783_s_at) / Fold change /veh VCAN (11757783_s_at) / RFU DDX43 (11728927_at) / Fold change /veh DDX43 (11728927_at) / RFU KRT8 (11758188_x_at) / Fold change /veh KRT8 (11758188_x_at) / RFU NKD1 (11759106_at) / Fold change /veh NKD1 (11759106_at) / RFU SRD5A1 (11742802_a_at) / Fold change /veh SRD5A1 (11742802_a_at) / RFU TPSAB1 /// TPSB2 (11721975_s_at) / Fold change /veh TPSAB1 /// TPSB2 (11721975_s_at) / RFU GSTM3 (11746129_a_at) / Fold change /veh GSTM3 (11746129_a_at) / RFU IL23R (11737362_x_at) / Fold change /veh IL23R (11737362_x_at) / RFU TMEM51 (11727254_a_at) / Fold change /veh TMEM51 (11727254_a_at) / RFU PIWIL2 (11732686_x_at) / Fold change /veh PIWIL2 (11732686_x_at) / RFU ORM1 (11744905_x_at) / Fold change /veh ORM1 (11744905_x_at) / RFU CCDC152 (11743942_at) / Fold change /veh CCDC152 (11743942_at) / RFU ECM1 (11717891_a_at) / Fold change /veh ECM1 (11717891_a_at) / RFU IL23R (11748794_a_at) / Fold change /veh IL23R (11748794_a_at) / RFU TNFAIP8L3 (11732012_x_at) / Fold change /veh TNFAIP8L3 (11732012_x_at) / RFU MBOAT4 (11741988_at) / Fold change /veh MBOAT4 (11741988_at) / RFU 11764193_at / Fold change /veh 11764193_at / RFU TMEM53 (11763286_at) / Fold change /veh TMEM53 (11763286_at) / RFU MAGEB2 (11727129_at) / Fold change /veh MAGEB2 (11727129_at) / RFU TMEM200A (11744735_a_at) / Fold change /veh TMEM200A (11744735_a_at) / RFU CCDC152 (11751479_a_at) / Fold change /veh CCDC152 (11751479_a_at) / RFU FAM211A (11726209_a_at) / Fold change /veh FAM211A (11726209_a_at) / RFU RGS16 (11746705_a_at) / Fold change /veh RGS16 (11746705_a_at) / RFU VCAN (11755009_s_at) / Fold change /veh VCAN (11755009_s_at) / RFU RHOB (11743442_s_at) / Fold change /veh RHOB (11743442_s_at) / RFU RGS16 (11720943_a_at) / Fold change /veh RGS16 (11720943_a_at) / RFU RGS16 (11720944_at) / Fold change /veh RGS16 (11720944_at) / RFU, VPS4B / Fold change vs veh, VPS4B / RFU, CREB1 / Fold change vs veh, CREB1 / RFU, DNAJC13 / Fold change vs veh, DNAJC13 / RFU, GNAQ / Fold change vs veh, GNAQ / RFU, CDK5R1 / Fold change vs veh, CDK5R1 / RFU, ZRANB3 / Fold change vs veh, ZRANB3 / RFU, CUL4A / Fold change vs veh, CUL4A / RFU, CCNY / Fold change vs veh, CCNY / RFU, UFL1 / Fold change vs veh, UFL1 / RFU, COG3 / Fold change vs veh, COG3 / RFU, DIAPH2 / Fold change vs veh, DIAPH2 / RFU, SKA2 / Fold change vs veh, SKA2 / RFU, AFF3 / Fold change vs veh, AFF3 / RFU, LMF1 / Fold change vs veh, LMF1 / RFU, IPO11 / Fold change vs veh, IPO11 / RFU, DFFB / Fold change vs veh, DFFB / RFU, FOXP1 / Fold change vs veh, FOXP1 / RFU, CARD8 / Fold change vs veh, CARD8 / RFU, STRN3 / Fold change vs veh, STRN3 / RFU, ADK / Fold change vs veh, ADK / RFU, RASSF2 / Fold change vs veh, RASSF2 / RFU, WIPF1 / Fold change vs veh, WIPF1 / RFU, LARP1B / Fold change vs veh, LARP1B / RFU, RASA1 / Fold change vs veh, RASA1 / RFU, RB1 / Fold change vs veh, RB1 / RFU, PPFIA1 / Fold change vs veh, PPFIA1 / RFU, MAT2A / Fold change vs veh, MAT2A / RFU, CCT5 / Fold change vs veh, CCT5 / RFU, WDR92 / Fold change vs veh, WDR92 / RFU, CUX1 / Fold change vs veh, CUX1 / RFU, TTC7A / Fold change vs veh, TTC7A / RFU, TMEM135 / Fold change vs veh, TMEM135 / RFU, DEPTOR / Fold change vs veh, DEPTOR / RFU, CPM / Fold change vs veh, CPM / RFU, DNAJB6 / Fold change vs veh, DNAJB6 / RFU, CACNA2D3 / Fold change vs veh, CACNA2D3 / RFU, DTX4 / Fold change vs veh, DTX4 / RFU, TFCP2 / Fold change vs veh, TFCP2 / RFU, GMCL1 /// GMCL1P1 / Fold change vs veh, GMCL1 /// GMCL1P1 / RFU, AEBP2 / Fold change vs veh, AEBP2 / RFU, SNHG1 /// SNORD22 /// SNORD25 /// SNORD26 /// SNORD27 /// SNORD28 /// SNORD29 /// SNORD31 / Fold change vs veh, SNHG1 /// SNORD22 /// SNORD25 /// SNORD26 /// SNORD27 /// SNORD28 /// SNORD29 /// SNORD31 / Fold change (Aza/veh), C12orf56 (ProbeSet 11735607_a_at) / Fold change (ACY-1035/veh), C12orf56 (ProbeSet 11735607_a_at) / Fold change (Aza/veh), FGFR1OP (ProbeSet 11751329_s_at) / Fold change (ACY-1035/veh), FGFR1OP (ProbeSet 11751329_s_at) / Fold change (Aza/veh), VPS36 (ProbeSet 11739960_a_at) / Fold change (ACY-1035/veh), VPS36 (ProbeSet 11739960_a_at) / RFU SYPL1 (11715823_x_at) / Fold change /veh SYPL1 (11715823_x_at) / RFU IGFBP7 (11715501_s_at) / Fold change /veh IGFBP7 (11715501_s_at) / RFU REEP3 (11722064_at) / Fold change /veh REEP3 (11722064_at) / RFU IGLL1 (11728026_x_at) / Fold change /veh IGLL1 (11728026_x_at): dose or concentration left out as unconfirmed
Conditions: ProbeSet 11741123_x_at; LIST D

With Nc1ccc(-c2cccs2)cc1NC(=O)c1ccc2c(c1)cc(C1CC1)n2CCN1CCOCC1 [ACY-1035] the “Fold change vs veh, ADK” value was 0.96.
